According to patent US20210238528A1, “CELL SCAFFOLD MATERIAL” (Stem Cell & Device Laboratory, Inc., priority 2018, published 2021):

System: myocardial cells derived from human iPS cells
Test: Drug response of myocardial cells determined with MEA probe
Details: for Drug response, Oriented fiber sheet 2: myocardial cells cultured 7 days with oriented fiber sheet 2, pitch 10 μm

SMILES: COc1ccc(CCN(C)CCCC(C#N)(c2ccc(OC)c(OC)c2)C(C)C)cc1OC (stereo not shown) [Verapamil]
- arrest (division stop) (0.3 μM verapamil, myocardial cells directly cultured on MEA probe): arrest (division stop) occurred
- Drug response, Oriented fiber sheet 2: No arrest occurred.
- Drug response, Oriented fiber sheet 2 (listed as verapamil): no an arrest (division stop) occurred
- Drug response, MEA probe (myocardial cells cultured directly on MEA probe): Arrest occurred.
